The values that follow come from publication PMC8508903, “Novel Dipyridinium Lipophile-Based Ionic Liquids Tethering Hydrazone Linkage: Design, Synthesis and Antitumorigenic Study” (International Journal of Molecular Sciences, 2021).

One series relates to A549 lung cancer cells. Nature of the series: MTT cell viability assay, A549. Format: cell-based, human. As to conditions: mean of three independent experiments (N = 9). The procedure:
(§1) To evaluate the effect of the examined series on the viability of different lung cancer cells, MTT assay was conducted after exposing A549, H1299, and H661 cell lines to increasing concentrations of each compound for 48 h. […] Table 2 and Supplementary Figure S92 (see Supplementary Materials) show the 50% inhibitory concentration (IC50) values for the compounds under investigation in A549, H1299, and H661 lung cancer cells.
(§2) The human lung cancer cell lines A549, H1299 and H661 and the normal cells dermal fibroblasts were obtained from the American Type Culture Collection ATCC. Cells were cultured as a monolayer at seeding density of 8 × 10^3 cells per well in high glucose Dulbecco’s modified eagle medium (DMEM) (Invitrogen, USA), as previously described. The in vitro assessment of the antitumorigenic activities related to the studied compounds was undertaken using the 3-(4,5-dimethylthiazol-2yl)-2,5-diphenyl tetrazolium bromide (MTT) colorimetric assay, as previously reported. The compounds under investigation were tested in three triplicates of each concentration in three independent assays for a total of nine replicates. Both positive (cisplatin) and negative (untreated culture) controls were applied under the same experimental conditions. Cells were cultured for 48 h at 37 °C in a 5% CO2 incubator. Afterwards, MTT assay was carried out where viable cell count was determined based on the amount of formazan crystals, as verified by the absorbance at 490 nm.
(§3) Data was analyzed by Graphpad Prism software (Graphpad Software Inc. Jolla, CA, USA) for the determination of IC50 value. All data were expressed as the average of triplicate experiments.
(In general: Tetrazolium assays rely on reduction of a dye to a coloured formazan, in cell work by metabolically active cells.)

The subject of a further series is H1299 lung cancer cells. The series is described as follows: MTT cell viability assay, H1299. The format is cell-based, human. As to conditions: mean of three independent experiments (N = 9). The protocol: as §1, §2, §3
The next series has as its system H661 lung cancer cells. Nature of the series: MTT cell viability assay, H661. The format is cell-based, human. To be noted: mean of three independent experiments (N = 9). The protocol: as §1, §2, §3
For the next series, the system named is human dermal fibroblasts. The series is described as follows: MTT cell viability assay, normal dermal fibroblasts. To be noted: 48 h, noncancerous human dermal fibroblasts. Format: cell-based. The protocol: as §1, §2, §3
The subject of series [1] is A549 cells. Nature of the series: Wound healing (migration) assay. The format is cell-based. As to conditions: Homo sapiens, A549, 24 h, A549, 10 µM, read-out: % inhibition of wound closure. The procedure: The wound healing assay was performed in A549 cells to evaluate the effect of the synthesized series on lung cancer cell migration, as shown in Table 3. The wound of the control sample was completely closed after 24 h. […] Cell migration was inhibited after 24 h of treatment with compounds 22 or 23 compared to untreated control cells.
A549 cells were seeded in inserts (Ibidi GmbH, Gräfelfing, Germany) at concentration of 30,000 per insert in 70 μL medium and incubated for 24 h. Afterward, inserts were removed and cells incubated with 10 μg/mL of mitomycin C for 2 h to stop cell proliferation. The medium was removed, and cells were washed three times then cells were treated with 10 µM concentration of the examined compound. Images were captured at 24 h using BOECO microscope coupled with 5.0 Mega Cmos camera at 4× magnification. Digital images were taken using ISCapture software and wound width was measured using MIPAR software (MIPAR, Worthington, OH, USA).

The test system of series [2] is A549 cells. Nature of the series: Colony formation in soft agar assay. Format: cell-based, human. To be noted: day 12. Set-up: Average Colony Size: unit not given here. The procedure:
To investigate the effect of treatment with either potent compound 22 or 23 at two different concentrations (5 and 10 µM) on the colony-forming capability of lung cancer cells, A549 cells were treated with either concentration for 24 h. Afterwards, cells were grown on soft agar.
To carry out the soft agar assay, a bottom agar film of 1% (w/v) was prepared by mixing autoclaved 1% (w/v) agar solution with 2× DMEM medium in a 1:1 ratio and allowed to solidify at room temperature. A mixture of 1 × 10^4 of A549 cells treated with either compound NV7 (5 µM and 10 µM) or NV8 (5 µM and 10 µM) and 0.6% (w/v) agar solution was prepared in 1:1 ratio and poured on top of the bottom layer and left to solidify. Plate was incubated for 2 weeks. Photos were captured after 12 days using EVOS XL Core imaging system (Invitrogen, Waltham, MA, USA).

In the case of `CCCCCCCCCCCC[n+]1ccc(C(=O)NN=Cc2ccc[n+](CCCCCCCCCCCC)c2)cc1.[I-].[I-]` [Compound 12, 1-Dodecyl-3-((2-(1-dodecylpyridin-1-ium-4-carbonyl)hydrazono)methyl)pyridin-1-ium Iodide], the melting point was 63 to 65 °C. This molecule also came in with an IC50 in the series with A549 lung cancer cells (48 h) of 26.9 µM. The molecule further showed an IC50 in the series on H1299 lung cancer cells (48 h) of 30.1 µM. For the same molecule, the IC50 in the series on H661 lung cancer cells (48 h) came out at 29.8 µM. The molecule further came in with an IC50 in the series with human dermal fibroblasts of more than 300 µM.

`CCCCCCCCCCCCCCCCCC[n+]1ccc(C(=O)NN=Cc2ccc[n+](CCCCCCCCCCCCCCCCCC)c2)cc1.[I-].[I-]` [Compound 15, 1-Octadecyl-3-((2-(1-octadecylpyridin-1-ium-4-carbonyl)hydrazono)methyl)pyridin-1-ium Iodide] yielded a melting point of 192 to 193 °C. Inhibition with A549 lung cancer cells (48 h) was half-maximal at 26.2 µM (IC50). In the series on H1299 lung cancer cells (48 h), this molecule yielded an IC50 of 22.1 µM. 26.1 µM corresponded to half-maximal inhibition in the series on H661 lung cancer cells (48 h) (IC50). The molecule further returned an IC50 in the series on human dermal fibroblasts of more than 300 µM.

With `CCCCCCCCCC[n+]1ccc(C(=O)N/N=C/c2ccc[n+](CCCCCCCCCC)c2)cc1` [Compound 22, 1-Decyl-3-((2-(1-decylpyridin-1-ium-4-carbonyl)hydrazono)methyl)pyridin-1-ium Hexafluorophosphate], the IC50 in the series with A549 lung cancer cells (Homo sapiens, A549, 48 h) was 23.5 µM; with H1299 lung cancer cells (Homo sapiens, NCI-H1299, 48 h) it was 29.1 µM; in the series on H661 lung cancer cells (Homo sapiens, NCI-H661, 48 h), 25.6 µM; with human dermal fibroblasts (Homo sapiens, Fibroblast) it was more than 300 µM. For the same molecule, in the series with A549 cells [1], the inhibition at 10 µM stood at 67.6%. Also, the “Average Colony Count” value in the series with A549 cells [2] (5 µM) is given as 210; in the series with A549 cells [2] (10 µM), 98. In addition, the “Average Colony Size” value worked out at 16356 in the series with A549 cells [2] (5 µM) and 11159 in the series with A549 cells [2] (10 µM).

As to `CCCCCCCCCC[n+]1ccc(C(=O)NN=Cc2ccc[n+](CCCCCCCCCC)c2)cc1.F[B-](F)(F)F.F[B-](F)(F)F` [Compound 23, 1-Decyl-3-((2-(1-decylpyridin-1-ium-4-carbonyl)hydrazono)methyl)pyridin-1-ium Tetrafluoroborate], the IC50 with A549 lung cancer cells (Homo sapiens, A549, 48 h) is 13.5 µM; in the series with H1299 lung cancer cells (Homo sapiens, NCI-H1299, 48 h) it was 10.8 µM; with H661 lung cancer cells (48 h), 11.3 µM; with human dermal fibroblasts (Homo sapiens, Fibroblast) it was more than 300 µM. In the series with A549 cells [1], the inhibition at 10 µM was 67.1%. The “Average Colony Count” value in the series on A549 cells [2] (5 µM) is given as 135; with A549 cells [2] (10 µM) it was 45. In addition, the results for the “Average Colony Size” value in the series on A549 cells [2] (5 µM) and in the series on A549 cells [2] (10 µM) were 43771 and 16837, respectively.

The IC50 is the concentration needed to halve the response being measured. As a reminder, the melting point is the temperature, or range, at which the solid turns liquid. As a reminder, the inhibition is the percentage by which the read-out fell short of the control.
